Source: patent publication US20220031871A1, “ANTIBODIES FOR CHELATED RADIONUCLIDES AND CLEARING AGENTS” (Hoffmann-La Roche Inc., priority 2018, published 2022)
Like-named read-outs stand apart in the source and are kept apart here.

Experiments:
[1] = Stability of metal-DOTAM in blood (spontaneous Ca-DOTAM formation); format: in vitro ADME, mouse
Source text: (§1) The initial choice for quenching was Cu, thus replacing unchelated DOTAM with quenched, non-competing Cu-DOTAM, and a large number of studies within the CEA-PRIT program were executed using this condition. However, it was later discovered that the Cu-DOTAM complex was, in fact, not stable in vivo, and a study was undertaken to assess its stability compared with alternative quenching ions in human and mouse serum, plasma, and blood.

[2] = as above; format: in vitro ADME, human
Source text: as §1

Row | Compound | spontaneous Ca-DOTAM formation [1] | spontaneous Ca-DOTAM formation [2] [%] | spontaneous Ca-DOTAM formation ([1]; mouse blood, 35 minutes p.i.) [%] | spontaneous Ca-DOTAM formation ([2]; human blood, 35 minutes p.i.) [%]
1 | NC(=O)CN1CCN(CC(N)=O)CCN(CC(N)=O)CCN(CC(N)=O)CC1.[Cu+2] [Cu-DOTAM] | approximately 25% | ~30 | – | –
2 | NC(=O)CN1CCN(CC(N)=O)CCN(CC(N)=O)CCN(CC(N)=O)CC1.[Pb+2] [Pb-DOTAM] | – | – | 4 | 4
3 | NC(=O)CN1CCN(CC(N)=O)CCN(CC(N)=O)CCN(CC(N)=O)CC1.[Zn+2] [Zn-DOTAM] | 0% | 0 | – | –
